Active and inactive are the calls of the source.
Tests used:
HeLa = assay: HeLa cell cytotoxicity, dose response, cytotoxicity control for MITF activator project, CellTiter-Glo luminescence, cherry-pick samples (AID 540259); format: functional, cell-based; conditions: Homo sapiens
Vero [1] = assay: cells; format: functional; conditions: Chlorocebus sabaeus
Vero [2] = assay: cells; format: functional, cell-based; conditions: Chlorocebus sabaeus
Cytochrome P450 2D6 = Cytochrome P450 2D6 (Homo sapiens, UniProt P10635);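 also: CYP2D6 member of a cytochrome P450 panel assay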
Cytochrome P450 1A2 = target: T1, Cytochrome P450 1A2 (Homo sapiens, UniProt P05177);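 also: PubChem cytochrome P450 panel assay, CYP1A2 panel member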
T1 sequence (P05177 whole entry): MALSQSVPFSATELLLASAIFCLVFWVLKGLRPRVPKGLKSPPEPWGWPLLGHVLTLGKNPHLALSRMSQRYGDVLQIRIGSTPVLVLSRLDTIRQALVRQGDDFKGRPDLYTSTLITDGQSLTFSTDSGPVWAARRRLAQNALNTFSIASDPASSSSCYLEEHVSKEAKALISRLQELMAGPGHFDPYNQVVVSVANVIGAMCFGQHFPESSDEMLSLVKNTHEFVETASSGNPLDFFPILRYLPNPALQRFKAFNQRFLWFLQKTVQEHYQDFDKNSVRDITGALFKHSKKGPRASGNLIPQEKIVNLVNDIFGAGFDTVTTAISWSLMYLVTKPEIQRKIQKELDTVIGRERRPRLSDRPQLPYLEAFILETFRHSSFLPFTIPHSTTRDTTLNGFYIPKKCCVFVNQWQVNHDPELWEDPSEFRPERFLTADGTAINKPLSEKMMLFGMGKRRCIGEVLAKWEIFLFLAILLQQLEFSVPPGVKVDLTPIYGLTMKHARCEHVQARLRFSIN

Cytochrome P450 2C9 = Cytochrome P450 2C9 (Homo sapiens, UniProt P11712)
HEK293 [3] = assay: cells; conditions: Homo sapiens
HEK293 [4] = assay: NOD1 signaling inhibitors, primary screen, cell-based, luminescence, uHTS (AID 1578); format: functional; conditions: Homo sapiens
[5] = target: T2, Nucleotide-binding oligomerization domain-containing protein 1 (Homo sapiens, UniProt Q9Y239); assay: NOD1 signaling inhibitors, SAR follow-up, revised (AID 2333); format: functional
T2 sequence (Q9Y239 whole entry): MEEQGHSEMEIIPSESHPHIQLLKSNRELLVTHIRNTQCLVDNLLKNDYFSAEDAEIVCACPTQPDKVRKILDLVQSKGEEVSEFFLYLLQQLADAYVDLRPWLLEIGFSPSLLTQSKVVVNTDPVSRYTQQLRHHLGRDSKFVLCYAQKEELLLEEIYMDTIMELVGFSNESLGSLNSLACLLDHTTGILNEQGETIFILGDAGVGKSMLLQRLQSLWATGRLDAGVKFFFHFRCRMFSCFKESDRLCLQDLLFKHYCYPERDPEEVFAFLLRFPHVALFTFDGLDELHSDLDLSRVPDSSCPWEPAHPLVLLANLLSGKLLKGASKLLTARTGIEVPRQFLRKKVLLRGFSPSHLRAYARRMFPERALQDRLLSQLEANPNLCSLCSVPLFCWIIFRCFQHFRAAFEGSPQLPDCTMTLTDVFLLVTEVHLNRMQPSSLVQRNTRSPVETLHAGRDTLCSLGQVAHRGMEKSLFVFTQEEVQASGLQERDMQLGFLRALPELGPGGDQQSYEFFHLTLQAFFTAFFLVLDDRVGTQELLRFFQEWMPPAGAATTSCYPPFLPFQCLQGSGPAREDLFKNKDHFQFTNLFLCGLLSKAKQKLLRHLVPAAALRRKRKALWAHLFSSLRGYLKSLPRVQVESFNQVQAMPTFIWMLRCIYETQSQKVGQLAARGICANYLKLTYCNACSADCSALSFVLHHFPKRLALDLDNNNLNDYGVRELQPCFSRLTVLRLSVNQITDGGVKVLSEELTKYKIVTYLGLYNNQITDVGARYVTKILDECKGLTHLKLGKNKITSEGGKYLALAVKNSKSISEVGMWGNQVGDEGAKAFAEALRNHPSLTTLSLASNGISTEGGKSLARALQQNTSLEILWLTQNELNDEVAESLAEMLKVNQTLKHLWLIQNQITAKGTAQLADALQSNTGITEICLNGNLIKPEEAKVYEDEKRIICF

HEK293 [6] = assay: cells; format: functional, cell-based; conditions: Homo sapiens
HEK293 [7] = assay: cells; format: functional, cell-based; conditions: Homo sapiens; remark: listed apart in the source
Tumor necrosis factor = Tumor necrosis factor (Homo sapiens, UniProt P01375); assay: TNFa-triggered NF-kB activation inhibitors, SAR follow-up, cell-based, revised (AID 2337); format: functional
HEK293 [8] = assay: NOD2 signaling inhibitors in MDP-stimulated cells, cell-based, uHTS, luminescence (AID 2001); format: functional; conditions: Homo sapiens
[9] = target: T3, Heat shock factor protein 1 (Mus musculus, UniProt P38532); assay: HSF1 potentiators in luciferase reporter cells, confirmation, cell-based, NIH3T3, luminescence, dose retest (AID 435004); format: functional;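 also: stress induced by proteasome inhibitor MG132 added 30 min after compound; luciferase reporter driven by HSF1 response element in NIH3T3 cells; actives raise luminescence as potentiators of the MG132 stress response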
T3 sequence (P38532 whole entry): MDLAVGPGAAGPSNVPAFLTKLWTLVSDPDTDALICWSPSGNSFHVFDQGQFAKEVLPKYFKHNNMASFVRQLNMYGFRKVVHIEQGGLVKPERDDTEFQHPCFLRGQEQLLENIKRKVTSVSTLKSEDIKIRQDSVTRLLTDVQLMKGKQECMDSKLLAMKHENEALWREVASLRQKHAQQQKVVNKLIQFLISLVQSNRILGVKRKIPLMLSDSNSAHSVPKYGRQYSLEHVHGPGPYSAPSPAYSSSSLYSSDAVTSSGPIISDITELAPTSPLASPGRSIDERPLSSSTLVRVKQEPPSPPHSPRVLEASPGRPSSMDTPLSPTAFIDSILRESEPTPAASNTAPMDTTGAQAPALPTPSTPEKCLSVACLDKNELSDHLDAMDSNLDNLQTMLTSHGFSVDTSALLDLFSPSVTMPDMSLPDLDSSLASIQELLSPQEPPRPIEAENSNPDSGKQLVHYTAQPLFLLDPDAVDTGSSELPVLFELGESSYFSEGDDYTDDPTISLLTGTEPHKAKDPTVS

[10] = Luminescence Cell-Based Dose Retest to Confirm Inhibitors of Cancer Stem Cells. [Related pubchem assays (depositor defined):AID2717, AID2721]; format: functional; conditions: Homo sapiens
[11] = inhibitors of intracellular T. cruzi replication, confirmation, NIH3T3 host cells, beta-gal luminescence (AID 2044); format: functional, cell-based;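 also: intracellular parasites grown in NIH/3T3 mouse fibroblasts as host cells; luminescent beta-galactosidase reporter signal from transgenic T. cruzi replicating inside host cells; inhibitors lower the luminescence signal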
[12] = target: T4, Short transient receptor potential channel 4 (Mus musculus, UniProt Q9QUQ5); assay: mouse TRPC4 channel inhibitors, dose response, cell-based, HEK293 TRPC4/mu-opioid, Fluo-4 calcium (AID 434942); format: functional;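 also: potency of inhibitors blocking the TRPC4 calcium response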
T4 sequence (Q9QUQ5 whole entry): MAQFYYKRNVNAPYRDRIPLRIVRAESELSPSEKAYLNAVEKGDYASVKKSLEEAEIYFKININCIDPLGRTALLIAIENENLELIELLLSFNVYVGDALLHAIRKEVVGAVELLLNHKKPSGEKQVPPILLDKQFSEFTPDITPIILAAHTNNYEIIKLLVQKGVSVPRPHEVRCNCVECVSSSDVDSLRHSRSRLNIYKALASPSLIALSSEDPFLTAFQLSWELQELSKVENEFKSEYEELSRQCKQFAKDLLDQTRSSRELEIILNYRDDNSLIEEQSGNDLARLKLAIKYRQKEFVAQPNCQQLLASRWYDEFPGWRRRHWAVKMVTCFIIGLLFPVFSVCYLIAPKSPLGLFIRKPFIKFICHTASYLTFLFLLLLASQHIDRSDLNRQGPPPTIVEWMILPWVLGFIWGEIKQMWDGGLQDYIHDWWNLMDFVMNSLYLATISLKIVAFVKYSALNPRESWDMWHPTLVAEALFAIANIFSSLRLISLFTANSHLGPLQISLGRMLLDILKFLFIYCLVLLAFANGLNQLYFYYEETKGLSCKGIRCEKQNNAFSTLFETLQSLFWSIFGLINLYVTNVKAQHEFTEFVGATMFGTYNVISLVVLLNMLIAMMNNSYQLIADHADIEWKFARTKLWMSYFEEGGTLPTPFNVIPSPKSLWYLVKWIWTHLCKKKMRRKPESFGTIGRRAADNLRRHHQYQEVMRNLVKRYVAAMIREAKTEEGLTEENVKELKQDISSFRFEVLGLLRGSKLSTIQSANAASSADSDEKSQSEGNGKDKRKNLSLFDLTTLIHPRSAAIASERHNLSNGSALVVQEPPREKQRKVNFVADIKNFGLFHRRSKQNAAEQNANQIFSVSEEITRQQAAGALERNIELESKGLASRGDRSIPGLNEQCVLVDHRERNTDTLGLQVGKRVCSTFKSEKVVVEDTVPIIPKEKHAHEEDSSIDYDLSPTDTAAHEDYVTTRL

[13] = target: T5, COUP transcription factor 2 (Homo sapiens, UniProt P24468); assay: Luminescence-based cell-based high throughput dose response assay to identify inhibitors of COUP-TFII (NR2F2).; format: functional;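 also: HEK293 cells transiently cotransfected with COUP-TFII expression vector and reporter; luciferase reporter luminescence driven by COUP-TFII from the pX2-168 reporter plasmid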
T5 sequence (P24468 whole entry): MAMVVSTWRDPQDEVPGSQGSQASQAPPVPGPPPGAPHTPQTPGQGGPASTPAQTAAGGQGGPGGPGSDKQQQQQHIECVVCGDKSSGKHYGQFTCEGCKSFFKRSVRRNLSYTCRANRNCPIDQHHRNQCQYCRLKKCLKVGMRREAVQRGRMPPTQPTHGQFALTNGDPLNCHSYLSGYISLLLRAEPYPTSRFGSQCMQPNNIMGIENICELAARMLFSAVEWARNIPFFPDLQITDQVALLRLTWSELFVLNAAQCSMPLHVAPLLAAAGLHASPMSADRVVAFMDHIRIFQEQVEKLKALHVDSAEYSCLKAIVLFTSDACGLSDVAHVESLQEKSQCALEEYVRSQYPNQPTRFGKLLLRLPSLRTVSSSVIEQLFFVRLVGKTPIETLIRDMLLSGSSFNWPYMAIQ

[14] = cytotoxicity toward NIH3T3 fibroblasts, dose response, counter-screen, cell-based, ATP luminescence, mouse fibroblasts (AID 2010); format: functional;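 also: cells exposed to compound for about 90 hours before reading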
[15] = target: T6, Nuclear receptor subfamily 0 group B member 1 (Homo sapiens, UniProt P51843); assay: Luminescence-based cell-based high throughput dose response assay for inhibitors of the orphan nuclear receptor subfamily 0, group B, member 1 (DAX1; NR0B1). [Related pubchem assays (depositor defined):AID504766, AID504790]; format: functional
T6 sequence (P51843 whole entry): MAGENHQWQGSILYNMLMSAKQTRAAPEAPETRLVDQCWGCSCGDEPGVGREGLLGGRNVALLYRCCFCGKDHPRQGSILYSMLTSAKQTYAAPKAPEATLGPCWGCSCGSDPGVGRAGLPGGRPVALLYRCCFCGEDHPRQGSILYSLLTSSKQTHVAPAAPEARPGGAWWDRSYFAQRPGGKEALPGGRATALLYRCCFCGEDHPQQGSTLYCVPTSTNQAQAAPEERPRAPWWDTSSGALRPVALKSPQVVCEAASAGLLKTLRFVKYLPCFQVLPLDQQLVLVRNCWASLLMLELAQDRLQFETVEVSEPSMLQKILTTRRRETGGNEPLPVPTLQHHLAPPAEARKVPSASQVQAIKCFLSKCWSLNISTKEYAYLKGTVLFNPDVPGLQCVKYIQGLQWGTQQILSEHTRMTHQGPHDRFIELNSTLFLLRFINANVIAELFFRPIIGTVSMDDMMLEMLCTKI

HEK293 [16] = assay: cells; format: functional, cell-based; conditions: Homo sapiens; remark: listed apart in the source

Cytochrome P450 2D6, sequence (P10635 whole entry): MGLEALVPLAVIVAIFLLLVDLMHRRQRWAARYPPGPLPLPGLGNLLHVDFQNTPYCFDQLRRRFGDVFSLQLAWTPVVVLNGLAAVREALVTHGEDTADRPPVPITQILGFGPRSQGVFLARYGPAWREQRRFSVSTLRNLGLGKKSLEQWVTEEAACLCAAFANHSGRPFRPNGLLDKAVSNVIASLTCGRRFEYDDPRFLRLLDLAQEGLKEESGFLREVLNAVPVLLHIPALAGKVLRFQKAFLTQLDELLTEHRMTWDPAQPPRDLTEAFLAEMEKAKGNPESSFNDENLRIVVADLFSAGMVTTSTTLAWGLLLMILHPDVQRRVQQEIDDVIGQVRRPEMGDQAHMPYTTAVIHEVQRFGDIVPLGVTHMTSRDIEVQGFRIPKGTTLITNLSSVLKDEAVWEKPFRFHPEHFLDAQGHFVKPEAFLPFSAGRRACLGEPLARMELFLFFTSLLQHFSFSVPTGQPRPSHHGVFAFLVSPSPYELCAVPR
Tumor necrosis factor, sequence (P01375 whole entry): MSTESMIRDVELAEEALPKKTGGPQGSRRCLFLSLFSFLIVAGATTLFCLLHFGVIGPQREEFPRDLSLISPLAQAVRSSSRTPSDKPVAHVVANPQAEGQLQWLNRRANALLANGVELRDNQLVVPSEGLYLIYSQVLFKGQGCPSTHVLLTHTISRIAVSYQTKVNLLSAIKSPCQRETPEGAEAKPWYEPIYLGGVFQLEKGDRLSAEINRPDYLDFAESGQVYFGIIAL
Cytochrome P450 2C9, sequence (P11712 whole entry): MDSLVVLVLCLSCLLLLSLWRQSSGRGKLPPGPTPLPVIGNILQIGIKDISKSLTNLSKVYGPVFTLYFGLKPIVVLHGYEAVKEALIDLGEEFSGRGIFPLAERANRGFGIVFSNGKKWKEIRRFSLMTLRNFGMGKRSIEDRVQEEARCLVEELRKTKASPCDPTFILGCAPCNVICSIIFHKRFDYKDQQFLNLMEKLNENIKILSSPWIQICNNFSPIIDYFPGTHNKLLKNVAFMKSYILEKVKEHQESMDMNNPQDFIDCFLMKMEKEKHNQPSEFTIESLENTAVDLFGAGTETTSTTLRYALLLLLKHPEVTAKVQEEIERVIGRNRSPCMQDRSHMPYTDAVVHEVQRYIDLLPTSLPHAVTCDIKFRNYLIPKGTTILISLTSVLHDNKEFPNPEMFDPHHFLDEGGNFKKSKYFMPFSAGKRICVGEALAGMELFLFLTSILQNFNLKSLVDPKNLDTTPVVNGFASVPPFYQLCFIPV

CCN(CC)C(=O)OCc1c(-c2ccccc2)ncc2ccccc12
AC50 (HeLa): 110 µM (active)

COc1cc(C(=O)/C=C/c2cccnc2)ccc1O
CC50 (Vero [1]): 21.2 µM (active) | IC50 (Vero [2]): > 25 µM (active)

COc1ccc(-n2nnnc2/C=C\Nc2ccccc2C(=O)c2ccccc2)cc1
AC50 (Cytochrome P450 2D6): inconclusive | AC50 (Cytochrome P450 1A2): 22.4 µM (inconclusive) | AC50 (Cytochrome P450 2C9): inconclusive

CC[C@H]1CN(C)[C@H]2Cc3c([nH]c4ccccc34)C(=O)C[C@H]1[C@H]2C(=O)OC
AC50 (Cytochrome P450 2D6): inconclusive

Cc1oc(-c2cccc3ccccc23)nc1CN1CCN(c2ncnc3ccccc23)CC1
IC50 (HEK293 [3]): > 20 µM (inactive) | EC50 (HEK293 [4]): 7.79 µM (active) | IC50 [5]: > 20 µM (inactive) | IC50 (HEK293 [6]): 6.63 µM (active) | IC50 (HEK293 [7]): 4.08 µM (active) | IC50 (Tumor necrosis factor): > 20 µM (inactive) | IC50 (HEK293 [8]): 3.28 µM (active)

COc1ccc(/C=C/C(=O)c2ccc(NS(=O)(=O)c3ccc(C)cc3)cc2)cc1O
CC50 (Vero [1]): 17.9 µM (active) | EC50 [9]: 32.2 µM (active) | IC50 (Vero [2]): > 25 µM (active) | AC50 [10]: 2.69 µM (active)

CC1CCN(C(=O)c2cc(-c3ccccc3O)on2)CC1
AC50 (HeLa): 129 µM (active)

N=c1c2c(n(Cc3ccc(Cl)cc3)c3c1CCC3)CCC2
EC50 (HEK293 [4]): 10.2 µM (active) | IC50 (HEK293 [6]): > 20 µM (inactive) | EC50 [11]: 0.443 µM (active) | EC50 [12]: 7.5 µM (active) | IC50 [13]: 9.25 µM (active) | IC50 (HEK293 [7]): 11.8 µM (active) | EC50 [14]: > 60 µM (not active) | IC50 (HEK293 [8]): 15.4 µM (inactive)

CCn1cc(/C=C/C(=O)c2ccc(O)cc2)c(C)n1
IC50 [15]: > 67.5 µM (inactive) | IC50 (HEK293 [16]): > 67.5 µM (inactive)

CCS(=O)(=O)N1CCN(c2nc(-c3ccccc3)cs2)CC1
AC50 (HeLa): 61.6 µM (active)

COc1ccc(C(=O)Nc2nncs2)cc1S(=O)(=O)N1CC(c2ccccc2)CC1=O (stereo not drawn)
IC50 [15]: > 67.5 µM (inactive) | IC50 (HEK293 [16]): > 67.5 µM (inactive)

COC(=O)C/C=C\[C@@H](C)[C@@H](/C=N\OC[C@@H](O)COCc1ccco1)OC
AC50 (Cytochrome P450 2D6): inconclusive
